From patent publication US20100168210A1, “T-Cell Cytokine-Inducing Surface Molecules and Methods of Use” (priority 2007, published 2010)

What was measured:
[1] = test system: T-cell-mediated TNFα production from human Mφ; experiment: T cell membrane-Mφ cell contact bioassay (activated T-cell mediated cytokine production); type: cell-based; conditions: anti-CD3/anti-CD28 activated T-cell membranes; CD14+ Mφ; FIG. 14
Experimental: Primary T cells or H9 cells were washed with cold PBS and cell pellets were resuspended in freshly made 1% paraformaldehyde at 5×10^6 cells/ml. Cells were fixed on ice for 2 hours, and then washed with 20× volume of cold PBS three times. Following the third wash, the cells were kept in PBS at 4° C. overnight to allow diffusion of paraformaldehyde. Cells were centrifuged and washed one more time. The fixed T cells were resuspended in medium at 1×10^7 cells/ml and dispensed into a 96 well U bottom plate at about 1×10^6/ml THP-1 cells 100 μl per well. Primary T cells or H9 cells (100 μl per well) were added at 8×, 4×, and 2×10^6 cells/ml. The plates were incubated at 37° C., in humidified 5% CO2 for 48 hours. Plates were centrifuged at 1,500 rpm for 5 minutes and supernatant (120 μl) transferred into a fresh plate. The supernatant was stored at −20° C. until used. […]
Using the T cell membrane-Mφ cell contact bioassay, small molecule antagonists were identified that differentially block anti-CD3/anti-CD28 activated T-cell mediated—but not LPS stimulated—TNFα and IL-1β production from peripheral blood resident CD14^+ Mφ. Several kinase inhibitors were selected and assessed for the effects of these compounds in blocking TNFα and/or IL-1β production using a validated T-cell membrane-Mφ contact bioassay. […]

[2] = test system: LPS-stimulated TNFα and IL-1β production; experiment: LPS-stimulated Mφ cytokine production; type: cell-based, human; conditions: FIG. 14
Description: Using the T cell membrane-Mφ cell contact bioassay, small molecule antagonists were identified that differentially block anti-CD3/anti-CD28 activated T-cell mediated—but not LPS stimulated—TNFα and IL-1β production from peripheral blood resident CD14^+ Mφ. Several kinase inhibitors were selected and assessed for the effects of these compounds in blocking TNFα and/or IL-1β production using a validated T-cell membrane-Mφ contact bioassay. […] Therefore, the activated T-cell membrane-Mt contact bioassay using human T-cells and Mφ can be used to establish high-throughput screens with recombinant TCISM (once identified and cloned) to identify orally-active, small molecule antagonists that specifically target adaptive, but not LPS-mediated, innate immunity. Some orally active, small molecule TNFα and/or IL-1β inhibitors which interfere specifically with T-cell mediated Mφ activation, leading to enhanced cytokine production but not LPS-mediated Mφ cytokine release, have a favorable therapeutic/side effect profile in T-cell mediated skin diseases such as Ps.

[3] = test system: Murine Collagen-Induced Arthritis; experiment: Murine Collagen-Induced Arthritis study; type: in vivo, mice; conditions: 50 mg/kg P.O. once per day beginning at day +1; day +13 after induction; FIG. 18
Experimental: Mice were immunized with CII+CFA on day 0 and boosted on day 21 with CII+IFA. A total of 10 DBA female mice per group were used. Drugs were administered as shown and started on the first day of initial signs of paw swelling/arthritis. Mean arthritis score (see data below) was assessed according to the procedure of Bendele et al., Arthritis & Rheumatism, 2000, 43(12), pp 2648-2659. […] Mice were treated 8 days after showing signs of collagen induced arthritis.
FIG. 18 is a joint histopathology of representative mice. In FIG. 18, panel A denotes a knee joint obtained from a DBA mouse with collagen-induced arthritis treated with an isotype-control rat-anti-mouse MAb (negative control) showing that […] over the course of this control treatment.

For `C[S+]([O-])c1ccccc1-n1cnc(-c2ccc(F)cc2)c1-c1ccncc1` (stereo not drawn) [Compound C], the “Inhibition of T-cell-mediated TNFα production from human Mφ” value [1] was “completely inhibit”, the “Effect on LPS-stimulated TNFα and IL-1β production” value [2] was “without having any significant effect” and the “Joint histopathology (knee joint inflammation)” value [3] was “reduced inflammation”.
